Source: the NIST ThermoML archive (doi:10.1021/acs.jced.5b00943)

Settings: Liquid, Ebulliometric method (Recirculating still)

C=CC(C)C#N (centres undefined) [2-methyl-3-butenenitrile]
Settings | vapor or sublimation pressure [kPa]
297.57 K | 2.701
304.35 K | 3.664
309.86 K | 4.608
315.95 K | 6.064
318.68 K | 6.731
321.34 K | 7.521
324.85 K | 8.987
327.15 K | 9.9
331.76 K | 11.75
335.25 K | 13.48
339.53 K | 15.75
343.65 K | 18.68
352.65 K | 25.35
356.05 K | 29.21
359.56 K | 33.21
364.85 K | 38.55
369.25 K | 44.68
373.25 K | 50.01
376.09 K | 55.48
379.75 K | 62.68
382.83 K | 68.94
387.65 K | 79.23
391.95 K | 90.16
394.25 K | 95.76
